According to paper PMC7168327, “Designed Antimicrobial Peptides for Topical Treatment of Antibiotic Resistant Acne Vulgaris” (Antibiotics, 2020):
In brackets after ≈: the same amount, converted by molar mass. Entries after “also recorded” stand apart in the source; their conditions may differ. Bridge positions count the residues as written; N and C are the ends. Peptide text beside a SMILES is read from it.

Columns and labels:
C. acnes HL043PA2 [1] = experiment: Multidrug-resistant C. acnes intradermal murine infection model; type: in vivo; details: topical 25 μL, BALB/c mice; for mean bacterial burden in skin (CFU/g): 7 applications 2–74 h post infection, skin harvested at 96 h, n = 6
Description: All animals received care in compliance with the Guide for the Care and Use of Laboratory Animals (8th Edition, National Institutes of Health Publication, 2011). All studies were approved by the Institutional Animal Care and Use Committee. Female BALB/c mice, 5 to 7 weeks, were obtained from Envigo Laboratories Inc (Indianapolis, IN, USA). General anesthesia consisted of an intraperitoneal injection of ketamine 100 mg/kg and xylazine 10 mg/kg (Vedco, Inc., St. Joseph, MO, USA).
Mice were inoculated via intradermal (ID) injection of the antibiotic-resistant C. acnes HL043PA2 (7.0 log10 CFU, 50 μL, BEI Resources, HM-514, [14]). The day prior to infection, each mouse was anesthetized using isoflurane, and an area of approximately 1″ × 1″ of skin on the dorsal area of each mouse was shaved and cleared of hair using the depilatory agent Nair®. Beginning 2 h after infection, mice were anesthetized and RP556, formulated in 2% hydroxypropyl methylcellulose in water, viscosity 3000–5600 cP, or 40 mg/mL clindamycin (4%) was administered topically, at 25 μL twice daily for a total of 7 applications (2, 14, 26, 38, 50, 62 and 74 h post infection). Abscesses were harvested at 96 h post-challenge (or Day 7 for untreated control) and assessed for bacterial CFU per gram of skin tissue.

[2] = tested on: ten C. acnes clinical isolates and two C. acnes ATCC reference strains; type: cell-based, Cutibacterium acnes
Description: (§1) The ten antibiotic resistant C. acnes clinical isolates were acquired from BEI resources with the two reference strains obtained from American Type Culture Collection (ATCC, Manassas, VA, USA). C. acnes is a relatively slow-growing, typically aerotolerant anaerobic so all in vitro C. acnes experiments were performed under anaerobic conditions.
(§2) Single colonies were inoculated in Reinforced Clostridium Medium (RCM) broth supplemented with sodium thioglycolate and incubated at 37 °C, with shaking at 200 rpm, for 2 or 3 days to reach logarithmic growth (OD600nm = 1.0). Each C. acnes (1 × 10^6 CFU per mL) was incubated with dAMP or clindamycin at two-fold serial dilutions (0.5–32 μg per mL) in RCM on a 96-well microplate for 48 h. Three replicas were included for each test article concentration. Bacterial growth was measured by optical density at 600 nm to determine the MIC for each dAMP applied.

C. acnes ATCC11827 = type: cell-based, Cutibacterium acnes; details: C. acnes ATCC11827; RCM broth, anaerobic, 1 × 10^6 CFU per mL, two-fold dilutions 0.5–32 μg/mL, 48 h, OD 600 nm; mean of three replicates
Description: as §1, §2

C. acnes HL043PA1 = type: cell-based, Cutibacterium acnes; details: C. acnes HL043PA1; RCM broth, anaerobic, 1 × 10^6 CFU per mL, two-fold dilutions 0.5–32 μg/mL, 48 h, OD 600 nm; mean of three replicates
Description: as §1, §2

C. acnes HL045PA1 = type: cell-based, Cutibacterium acnes; details: C. acnes HL045PA1; RCM broth, anaerobic, 1 × 10^6 CFU per mL, two-fold dilutions 0.5–32 μg/mL, 48 h, OD 600 nm; mean of three replicates
Description: as §1, §2

C. acnes HL053PA1 = type: cell-based, Cutibacterium acnes; details: C. acnes HL053PA1; RCM broth, anaerobic, 1 × 10^6 CFU per mL, two-fold dilutions 0.5–32 μg/mL, 48 h, OD 600 nm; mean of three replicates
Description: as §1, §2

C. acnes HL038PA1 = type: cell-based, Cutibacterium acnes; details: C. acnes HL038PA1; RCM broth, anaerobic, 1 × 10^6 CFU per mL, two-fold dilutions 0.5–32 μg/mL, 48 h, OD 600 nm; mean of three replicates
Description: as §1, §2

C. acnes ATCC6919 = type: cell-based, Cutibacterium acnes; details: C. acnes ATCC6919; RCM broth, anaerobic, 1 × 10^6 CFU per mL, two-fold dilutions 0.5–32 μg/mL, 48 h, OD 600 nm; mean of three replicates
Description: as §1, §2

C. acnes HL056PA1 = type: cell-based, Cutibacterium acnes; details: C. acnes HL056PA1; RCM broth, anaerobic, 1 × 10^6 CFU per mL, two-fold dilutions 0.5–32 μg/mL, 48 h, OD 600 nm; mean of three replicates
Description: as §1, §2

C. acnes HL043PA2 [3] = type: cell-based, Cutibacterium acnes; details: C. acnes HL043PA2 (multi-drug resistant); RCM broth, anaerobic, 1 × 10^6 CFU per mL, two-fold dilutions 0.5–32 μg/mL, 48 h, OD 600 nm; mean of three replicates
Description: as §1, §2

C. acnes HL007PA1 = type: cell-based, Cutibacterium acnes; details: C. acnes HL007PA1; RCM broth, anaerobic, 1 × 10^6 CFU per mL, two-fold dilutions 0.5–32 μg/mL, 48 h, OD 600 nm; mean of three replicates
Description: as §1, §2

C. acnes HL082PA2 = type: cell-based, Cutibacterium acnes; details: C. acnes HL082PA2; RCM broth, anaerobic, 1 × 10^6 CFU per mL, two-fold dilutions 0.5–32 μg/mL, 48 h, OD 600 nm; mean of three replicates
Description: as §1, §2

C. acnes HL072PA1 = type: cell-based, Cutibacterium acnes; details: C. acnes HL072PA1; RCM broth, anaerobic, 1 × 10^6 CFU per mL, two-fold dilutions 0.5–32 μg/mL, 48 h, OD 600 nm; mean of three replicates
Description: as §1, §2

C. acnes HL013PA1 = type: cell-based, Cutibacterium acnes; details: C. acnes HL013PA1; RCM broth, anaerobic, 1 × 10^6 CFU per mL, two-fold dilutions 0.5–32 μg/mL, 48 h, OD 600 nm; mean of three replicates
Description: as §1, §2

SMILES: CC[C@H](C)[C@@H]1NC(=O)CNC(=O)[C@H](CCCCN)NC(=O)[C@H](Cc2ccc(O)cc2)NC(=O)[C@@H]2CSSC[C@H](NC1=O)C(=O)N[C@@H](Cc1ccc(O)cc1)C(=O)N[C@@H](CCCCN)C(=O)N[C@@H](CCCCN)C(=O)N[C@H](C(=O)N[C@@H](CCCCN)C(N)=O)CSSC[C@H](NC(=O)[C@H](Cc1c[nH]c3ccccc13)NC(=O)[C@@H](N)CCCNC(=N)N)C(=O)N[C@@H](Cc1ccccc1)C(=O)N[C@@H](CCCCN)C(=O)N[C@@H](C(C)C)C(=O)N2 [RP556] (H-RWCFKVCYKGICYKKCK-NH2; disulfide 3-16, 7-12)
- mean bacterial burden in skin (CFU/g) (C. acnes HL043PA2 [1]; RP556 5 mg/mL (0.5%) in 2% hydroxypropyl methylcellulose): below the detectable limit; also recorded: completely eliminated C. acnes infection
- mean bacterial burden in skin (CFU/g) (C. acnes HL043PA2 [1]; RP556 20 mg/mL in 2% hydroxypropyl methylcellulose): below the detectable limit
- clinical observations and body weight following treatment (C. acnes HL043PA2 [1]; 5 and 20 mg/mL, 7 applications): no untoward clinical observations or changes in body weight
- in vitro anti-bacterial activity against the C. acnes bacterial strains (in words) ([2]; 0.5–32 μg/mL concentration range evaluated): most active
- MIC values against all C. acnes isolates ([2]; span over ten antibiotic resistant isolates and two ATCC reference strains): 2 to 8 µg/mL
- MIC (C. acnes ATCC11827): 8 µg/mL (≈ 3.72 µM)
- MIC (C. acnes HL043PA1): 4 µg/mL (≈ 1.86 µM)
- MIC (C. acnes HL045PA1): 4 µg/mL (≈ 1.86 µM)
- MIC (C. acnes HL053PA1): 4 µg/mL (≈ 1.86 µM)
- MIC (C. acnes HL038PA1): 4 µg/mL (≈ 1.86 µM)
- MIC (C. acnes ATCC6919): 4 µg/mL (≈ 1.86 µM)
- MIC (C. acnes HL056PA1): 2 µg/mL (≈ 0.929 µM)
- MIC (C. acnes HL043PA2 [3]): 4 µg/mL (≈ 1.86 µM)
- MIC (C. acnes HL007PA1): 4 µg/mL (≈ 1.86 µM)
- MIC (C. acnes HL082PA2): 2 µg/mL (≈ 0.929 µM)
- MIC (C. acnes HL072PA1): 8 µg/mL (≈ 3.72 µM)
- MIC (C. acnes HL013PA1): 2 µg/mL (≈ 0.929 µM)
